Reference: the NIST ThermoML archive (doi:10.1021/je049930e)

Experiment: wn = mass fraction of the nth substance listed
Conditions: Liquid, Vibrating tube method

CC(=O)c1ccccc1 [acetophenone] + CCCCCCCCO
mass density [kg/m3]
Conditions	100 kPa	10000 kPa	15000 kPa	20000 kPa	25000 kPa	30000 kPa	35000 kPa	40000 kPa	45000 kPa	50000 kPa
298.15 K, w2 = 0.1075	996	1001.7	1004.5	1007.2	1009.8	1012.3	1014.9	1017.3	1019.7	1022.1
298.15 K, w2 = 0.2132	971.2	977	979.8	982.5	985.2	987.7	990.3	992.8	995.1	997.5
298.15 K, w2 = 0.3172	947.9	953.8	956.6	959.4	962	964.7	967.2	969.7	972.2	974.6
298.15 K, w2 = 0.4195	926.2	932.2	935.1	937.9	940.6	943.2	945.8	948.3	950.7	953.2
298.15 K, w2 = 0.5201	905.9	911.9	914.9	917.6	920.3	923	925.6	928.1	930.6	933
298.15 K, w2 = 0.6192	886.6	892.7	895.6	898.4	901.2	903.8	906.4	909	911.4	913.8
298.15 K, w2 = 0.7166	868.6	874.7	877.6	880.4	883.2	885.9	888.5	891	893.5	895.9
298.15 K, w2 = 0.8126	851.8	857.9	860.9	863.7	866.5	869.2	871.8	874.2	876.8	879.2
298.15 K, w2 = 0.907	836	842.1	845.1	848	850.7	853.4	855.9	858.5	861	863.3
318.15 K, w2 = 0.1075	978.9	985.3	988.3	991.3	994.1	997	999.5	1002.2	1004.8	1007.3
318.15 K, w2 = 0.2132	954.5	960.9	964	967	969.9	972.7	975.4	978	980.7	983.2
318.15 K, w2 = 0.3172	931.3	937.8	940.9	943.9	946.9	949.7	952.4	955.1	957.7	960.3
318.15 K, w2 = 0.4195	910	916.6	919.7	922.8	925.7	928.6	931.4	934	936.8	939.3
318.15 K, w2 = 0.5201	890	896.7	899.8	902.9	905.9	908.7	911.5	914.2	916.9	919.5
318.15 K, w2 = 0.6192	871.1	877.8	881.1	884.1	887.1	890	892.7	895.4	898.1	900.7
318.15 K, w2 = 0.7166	853.4	860.2	863.3	866.4	869.5	872.4	875.2	877.9	880.5	883.1
318.15 K, w2 = 0.8126	837	843.9	847	850.2	853.2	856	858.9	861.6	864.3	866.8
318.15 K, w2 = 0.907	821.6	828.3	831.6	834.7	837.7	840.6	843.4	846.1	848.8	851.3
348.15 K, w2 = 0.1075	952.5	959.7	963.2	966.6	969.9	973.1	976.1	979.2	982	984.8
348.15 K, w2 = 0.2132	928.4	935.9	939.4	942.8	946.1	949.2	952.3	955.3	958.2	961
348.15 K, w2 = 0.3172	905.7	913.1	916.7	920.1	923.5	926.7	929.8	932.9	935.9	938.6
348.15 K, w2 = 0.4195	884.7	892.4	896	899.5	902.9	906.2	909.3	912.3	915.3	918.2
348.15 K, w2 = 0.5201	865.1	872.8	876.5	880	883.4	886.6	889.6	892.8	895.9	898.7
348.15 K, w2 = 0.6192	846.9	854.6	858.3	861.8	865.3	868.5	871.7	874.8	877.8	880.7
348.15 K, w2 = 0.7166	829.6	837.4	841.1	844.6	848	851.3	854.5	857.6	860.5	863.4
348.15 K, w2 = 0.8126	813.7	821.5	825.2	828.7	832.1	835.4	838.6	841.7	844.6	847.5
348.15 K, w2 = 0.907	798.4	806.4	810.2	813.8	817.2	820.4	823.6	826.7	829.7	832.5
